In ChEMBL document CHEMBL1146654, “3-(7-Azaindolyl)-4-arylmaleimides as potent, selective inhibitors of glycogen synthase kinase-3” (Bioorg Med Chem Lett, 2004):

Experiments:
[1] = molecular target: Tyrosine-protein kinase Blk (Mus musculus) (UniProt P16277); assay: Inhibition of B lymphoid tyrosine kinase; design: scale not given: the % may be the effect or the level left
[2] = molecular target: Cyclin-dependent kinase 2/cyclin E (Homo sapiens) (UniProt P24864+P24941+O96020); assay: Inhibition of CDK2/cyclin E; assay type: protein-complex assay; design: scale not given: the % may be the effect or the level left
[3] = molecular target: CDK6/cyclin D3 (Homo sapiens) (UniProt P30281+Q00534); assay: Inhibition of Cyclin-dependent kinase 6-cyclin D3; assay type: protein-complex assay; design: scale not given: the % may be the effect or the level left
[4] = molecular target: Cyclin-dependent kinase 1/cyclin B (Homo sapiens) (UniProt P06493+P14635+Q8WWL7+O95067); assay: Inhibition of cyclin-dependent kinase 1-cyclin B; assay type: protein-complex assay; design: scale not given: the % may be the effect or the level left
[5] = molecular target: Insulin-like growth factor 1 receptor (Homo sapiens) (UniProt P08069); assay: Inhibition of insulin-like growth factor I receptor; design: scale not given: the % may be the effect or the level left
[6] = molecular target: Dual specificity mitogen-activated protein kinase kinase 1 (Homo sapiens) (UniProt Q02750); assay: Inhibition of mitogen activated protein kinase kinase 1; design: scale not given: the % may be the effect or the level left
[7] = molecular target: Mitogen-activated protein kinase 1 (Homo sapiens) (UniProt P28482); assay: (§1) Inhibition of mitogen-activated protein kinase 2; design: scale not given: the % may be the effect or the level left
[8] = molecular target: Mitogen-activated protein kinase 1 (Mus musculus) (UniProt P63085); assay: as §1; design: scale not given: the % may be the effect or the level left
[9] = molecular target: T1, Dual specificity mitogen-activated protein kinase kinase 7 (Homo sapiens) (UniProt O14733); assay: Inhibition of Mitogen activated protein kinase kinase 7 beta; design: scale not given: the % may be the effect or the level left
T1 sequence (whole entry): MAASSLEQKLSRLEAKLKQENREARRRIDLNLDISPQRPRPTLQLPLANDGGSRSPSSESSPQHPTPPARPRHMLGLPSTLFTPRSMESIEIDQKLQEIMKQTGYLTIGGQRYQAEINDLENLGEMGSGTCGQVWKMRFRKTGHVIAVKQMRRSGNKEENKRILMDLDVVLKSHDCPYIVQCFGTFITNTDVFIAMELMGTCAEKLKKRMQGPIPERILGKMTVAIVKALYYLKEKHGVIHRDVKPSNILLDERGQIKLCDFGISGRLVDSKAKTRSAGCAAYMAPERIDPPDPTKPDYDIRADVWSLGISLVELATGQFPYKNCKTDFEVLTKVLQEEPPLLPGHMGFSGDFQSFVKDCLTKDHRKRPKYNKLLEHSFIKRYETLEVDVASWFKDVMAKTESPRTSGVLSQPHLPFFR

Homo sapiens = species on record: Homo sapiens; assay: Inhibition of PKA; design: scale not given: the % may be the effect or the level left
[10] = molecular target: T2, Protein kinase C gamma type (Homo sapiens, UniProt P05129); assay: Inhibitory activity of 10 uM compound against protein kinase C-gamma using histone as substrate
[11] = molecular target: Protein kinase C alpha type (Homo sapiens, UniProt P17252); assay: Inhibition of PKCalpha; design: scale not given: the % may be the effect or the level left
[12] = molecular target: RAC-alpha serine/threonine-protein kinase (Homo sapiens) (UniProt P31749); assay: Inhibition of PKBalpha; design: scale not given: the % may be the effect or the level left
[13] = molecular target: Platelet-derived growth factor receptor beta (Homo sapiens) (UniProt P09619); assay: Inhibition of PDGFRbeta; design: scale not given: the % may be the effect or the level left
[14] = molecular target: T2, Protein kinase C gamma type; assay: Inhibition of PKCgamma; design: scale not given: the % may be the effect or the level left
[15] = molecular target: Protein kinase C theta type (Homo sapiens) (UniProt Q04759); assay: Inhibition of PKCtheta; design: scale not given: the % may be the effect or the level left
[16] = molecular target: T3, Serine/threonine-protein kinase Chk1 (Homo sapiens) (UniProt O14757); assay: Inhibition of Serine/threonine-protein kinase Chk1; design: scale not given: the % may be the effect or the level left
T3 sequence (whole entry): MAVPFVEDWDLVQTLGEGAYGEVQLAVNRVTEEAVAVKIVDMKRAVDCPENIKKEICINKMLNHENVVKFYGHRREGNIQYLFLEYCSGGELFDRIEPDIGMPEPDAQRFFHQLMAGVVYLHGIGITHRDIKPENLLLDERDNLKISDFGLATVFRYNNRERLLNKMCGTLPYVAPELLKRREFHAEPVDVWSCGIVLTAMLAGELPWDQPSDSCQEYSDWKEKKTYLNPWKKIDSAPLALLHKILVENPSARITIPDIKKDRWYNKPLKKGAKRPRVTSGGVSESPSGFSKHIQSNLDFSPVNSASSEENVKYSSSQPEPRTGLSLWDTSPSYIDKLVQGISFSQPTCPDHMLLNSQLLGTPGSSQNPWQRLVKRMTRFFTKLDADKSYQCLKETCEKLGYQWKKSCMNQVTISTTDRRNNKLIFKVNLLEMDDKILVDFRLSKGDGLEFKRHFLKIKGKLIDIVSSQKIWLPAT

[17] = molecular target: Ribosomal protein S6 kinase alpha-1 (Rattus norvegicus) (UniProt Q63531); assay: Inhibition of Ribosomal S6 kinase 1; design: scale not given: the % may be the effect or the level left
[18] = molecular target: Ribosomal protein S6 kinase alpha-3 (Homo sapiens, UniProt P51812); assay: Inhibition of Ribosomal S6 kinase 3; design: scale not given: the % may be the effect or the level left
[19] = molecular target: T4, Serine/threonine-protein kinase Sgk1 (Homo sapiens) (UniProt O00141); assay: Inhibition of Serum/glucocorticoid regulated kinase; design: scale not given: the % may be the effect or the level left
T4 sequence (whole entry): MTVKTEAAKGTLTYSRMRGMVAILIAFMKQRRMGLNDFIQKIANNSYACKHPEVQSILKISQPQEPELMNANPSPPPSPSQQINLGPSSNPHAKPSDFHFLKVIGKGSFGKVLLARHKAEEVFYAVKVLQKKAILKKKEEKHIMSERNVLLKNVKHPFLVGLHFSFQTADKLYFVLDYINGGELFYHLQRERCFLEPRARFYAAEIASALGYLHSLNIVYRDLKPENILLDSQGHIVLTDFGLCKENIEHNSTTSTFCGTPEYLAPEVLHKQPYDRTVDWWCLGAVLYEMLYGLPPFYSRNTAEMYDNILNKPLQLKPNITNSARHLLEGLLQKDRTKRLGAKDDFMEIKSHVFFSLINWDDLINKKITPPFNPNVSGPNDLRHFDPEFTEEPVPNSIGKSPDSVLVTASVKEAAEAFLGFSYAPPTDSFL

[20] = molecular target: T5, Mitogen-activated protein kinase 13 (Homo sapiens) (UniProt O15264); assay: Inhibition of Stress activated protein kinase 4; design: scale not given: the % may be the effect or the level left
T5 sequence (whole entry): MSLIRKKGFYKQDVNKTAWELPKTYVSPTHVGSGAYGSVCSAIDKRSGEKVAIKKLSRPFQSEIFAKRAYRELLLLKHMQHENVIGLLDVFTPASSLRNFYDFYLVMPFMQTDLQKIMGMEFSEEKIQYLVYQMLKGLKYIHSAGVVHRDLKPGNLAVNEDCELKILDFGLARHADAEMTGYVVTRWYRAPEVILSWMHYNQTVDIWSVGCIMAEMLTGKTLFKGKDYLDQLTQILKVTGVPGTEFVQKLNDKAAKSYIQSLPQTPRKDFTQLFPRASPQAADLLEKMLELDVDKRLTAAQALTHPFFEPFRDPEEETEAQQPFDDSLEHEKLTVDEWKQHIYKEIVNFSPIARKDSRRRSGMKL

[21] = molecular target: Mitogen-activated protein kinase 14 (Homo sapiens) (UniProt Q16539); assay: Inhibition of Stress activated protein kinase 2a; design: scale not given: the % may be the effect or the level left
[22] = molecular target: Tyrosine-protein kinase CSK (Homo sapiens) (UniProt P41240); assay: Inhibition of Tyrosine-protein kinase CSK; design: scale not given: the % may be the effect or the level left
[23] = molecular target: Proto-oncogene tyrosine-protein kinase Src (Homo sapiens) (UniProt P12931); assay: Inhibition of c-Src tyrosine kinase; design: scale not given: the % may be the effect or the level left
[24] = molecular target: Mitogen-activated protein kinase 8 (Homo sapiens) (UniProt P45983); assay: Inhibition of c-Jun N-terminal kinase 1-alpha 1; design: scale not given: the % may be the effect or the level left

Chain of RAC-alpha serine/threonine-protein kinase (Homo sapiens) (P31749 whole entry): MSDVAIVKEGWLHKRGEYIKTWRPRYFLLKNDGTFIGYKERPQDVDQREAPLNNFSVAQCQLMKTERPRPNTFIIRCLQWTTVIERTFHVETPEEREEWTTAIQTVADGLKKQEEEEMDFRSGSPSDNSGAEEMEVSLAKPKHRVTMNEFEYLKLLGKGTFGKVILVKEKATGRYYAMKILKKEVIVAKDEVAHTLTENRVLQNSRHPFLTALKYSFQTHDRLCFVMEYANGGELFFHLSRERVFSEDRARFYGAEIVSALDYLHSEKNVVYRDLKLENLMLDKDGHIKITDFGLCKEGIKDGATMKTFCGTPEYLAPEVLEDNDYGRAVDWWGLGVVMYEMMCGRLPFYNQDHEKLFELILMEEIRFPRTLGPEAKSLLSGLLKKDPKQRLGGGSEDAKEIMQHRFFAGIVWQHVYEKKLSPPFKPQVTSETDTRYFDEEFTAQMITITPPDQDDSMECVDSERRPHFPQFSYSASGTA
Chain of Mitogen-activated protein kinase 1 (Homo sapiens) (P28482 whole entry): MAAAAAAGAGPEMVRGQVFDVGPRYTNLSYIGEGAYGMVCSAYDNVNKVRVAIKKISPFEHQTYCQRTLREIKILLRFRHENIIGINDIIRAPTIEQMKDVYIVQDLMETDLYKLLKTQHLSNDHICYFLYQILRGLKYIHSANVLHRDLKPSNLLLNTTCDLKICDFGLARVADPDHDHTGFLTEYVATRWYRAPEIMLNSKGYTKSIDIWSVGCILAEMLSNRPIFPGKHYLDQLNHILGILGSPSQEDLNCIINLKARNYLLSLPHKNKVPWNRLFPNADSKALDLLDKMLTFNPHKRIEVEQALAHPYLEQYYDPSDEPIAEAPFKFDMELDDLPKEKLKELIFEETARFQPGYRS
Chain of Insulin-like growth factor 1 receptor (Homo sapiens) (P08069 31-736 limits assumed): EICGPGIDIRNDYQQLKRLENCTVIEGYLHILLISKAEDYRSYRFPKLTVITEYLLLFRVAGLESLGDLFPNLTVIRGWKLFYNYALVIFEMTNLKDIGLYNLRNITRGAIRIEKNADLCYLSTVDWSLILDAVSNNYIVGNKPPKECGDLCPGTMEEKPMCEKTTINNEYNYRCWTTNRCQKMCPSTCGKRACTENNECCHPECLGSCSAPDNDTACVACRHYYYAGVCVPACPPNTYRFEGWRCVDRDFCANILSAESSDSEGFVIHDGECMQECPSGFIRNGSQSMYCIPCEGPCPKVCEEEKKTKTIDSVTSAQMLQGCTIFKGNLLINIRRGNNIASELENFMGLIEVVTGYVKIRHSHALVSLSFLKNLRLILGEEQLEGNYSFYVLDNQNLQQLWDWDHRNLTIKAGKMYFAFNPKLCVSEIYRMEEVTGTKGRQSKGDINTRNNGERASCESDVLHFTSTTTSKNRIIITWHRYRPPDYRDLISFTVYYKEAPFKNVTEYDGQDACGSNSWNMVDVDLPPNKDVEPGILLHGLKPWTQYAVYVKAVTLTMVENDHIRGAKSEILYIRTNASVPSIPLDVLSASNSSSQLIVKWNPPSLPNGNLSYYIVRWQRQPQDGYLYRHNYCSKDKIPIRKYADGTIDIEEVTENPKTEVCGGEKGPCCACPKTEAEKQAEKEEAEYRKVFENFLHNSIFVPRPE
Chain of Insulin-like growth factor 1 receptor (Homo sapiens) (P08069 741-1367 limits assumed): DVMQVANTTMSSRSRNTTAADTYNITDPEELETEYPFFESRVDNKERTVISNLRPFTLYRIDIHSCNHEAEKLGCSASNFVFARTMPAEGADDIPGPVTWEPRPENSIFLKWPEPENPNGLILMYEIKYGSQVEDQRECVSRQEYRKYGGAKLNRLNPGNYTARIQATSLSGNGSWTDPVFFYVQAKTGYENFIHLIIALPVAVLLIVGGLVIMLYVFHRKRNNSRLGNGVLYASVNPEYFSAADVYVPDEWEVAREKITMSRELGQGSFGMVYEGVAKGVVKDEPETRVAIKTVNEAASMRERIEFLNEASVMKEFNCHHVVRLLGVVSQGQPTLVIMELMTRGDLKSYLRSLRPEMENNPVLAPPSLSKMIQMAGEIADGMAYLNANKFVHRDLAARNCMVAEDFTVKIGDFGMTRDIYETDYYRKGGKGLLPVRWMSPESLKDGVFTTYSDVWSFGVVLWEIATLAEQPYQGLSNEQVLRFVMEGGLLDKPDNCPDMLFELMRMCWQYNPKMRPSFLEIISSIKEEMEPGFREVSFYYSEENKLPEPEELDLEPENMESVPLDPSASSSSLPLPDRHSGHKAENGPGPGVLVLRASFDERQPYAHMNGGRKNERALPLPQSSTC
Chain of Mitogen-activated protein kinase 14 (Homo sapiens) (Q16539 whole entry): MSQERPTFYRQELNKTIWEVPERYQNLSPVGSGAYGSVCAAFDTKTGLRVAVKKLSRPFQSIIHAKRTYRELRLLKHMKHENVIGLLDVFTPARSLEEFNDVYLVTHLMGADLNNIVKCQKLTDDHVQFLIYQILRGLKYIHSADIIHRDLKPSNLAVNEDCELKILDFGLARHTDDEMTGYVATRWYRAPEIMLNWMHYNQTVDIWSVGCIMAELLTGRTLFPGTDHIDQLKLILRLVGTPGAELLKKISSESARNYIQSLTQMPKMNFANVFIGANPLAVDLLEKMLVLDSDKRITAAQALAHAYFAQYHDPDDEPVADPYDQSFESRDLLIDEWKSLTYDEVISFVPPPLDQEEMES
Chain of Proto-oncogene tyrosine-protein kinase Src (Homo sapiens) (P12931 2-536 limits assumed): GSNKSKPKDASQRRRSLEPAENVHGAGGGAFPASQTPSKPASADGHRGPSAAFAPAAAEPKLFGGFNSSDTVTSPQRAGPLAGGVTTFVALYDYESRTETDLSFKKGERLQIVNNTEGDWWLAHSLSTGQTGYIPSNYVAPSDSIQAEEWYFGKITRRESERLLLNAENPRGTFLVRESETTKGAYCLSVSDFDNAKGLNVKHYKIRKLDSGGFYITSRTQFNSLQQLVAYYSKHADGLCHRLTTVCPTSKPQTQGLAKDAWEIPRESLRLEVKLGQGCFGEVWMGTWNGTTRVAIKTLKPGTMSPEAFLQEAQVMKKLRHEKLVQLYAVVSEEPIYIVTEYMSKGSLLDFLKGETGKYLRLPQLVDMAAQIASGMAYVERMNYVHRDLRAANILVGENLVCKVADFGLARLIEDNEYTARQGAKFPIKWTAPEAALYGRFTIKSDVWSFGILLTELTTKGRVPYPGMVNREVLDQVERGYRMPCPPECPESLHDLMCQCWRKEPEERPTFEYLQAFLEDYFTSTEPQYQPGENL
Chain of Tyrosine-protein kinase Blk (Mus musculus) (P16277 whole entry): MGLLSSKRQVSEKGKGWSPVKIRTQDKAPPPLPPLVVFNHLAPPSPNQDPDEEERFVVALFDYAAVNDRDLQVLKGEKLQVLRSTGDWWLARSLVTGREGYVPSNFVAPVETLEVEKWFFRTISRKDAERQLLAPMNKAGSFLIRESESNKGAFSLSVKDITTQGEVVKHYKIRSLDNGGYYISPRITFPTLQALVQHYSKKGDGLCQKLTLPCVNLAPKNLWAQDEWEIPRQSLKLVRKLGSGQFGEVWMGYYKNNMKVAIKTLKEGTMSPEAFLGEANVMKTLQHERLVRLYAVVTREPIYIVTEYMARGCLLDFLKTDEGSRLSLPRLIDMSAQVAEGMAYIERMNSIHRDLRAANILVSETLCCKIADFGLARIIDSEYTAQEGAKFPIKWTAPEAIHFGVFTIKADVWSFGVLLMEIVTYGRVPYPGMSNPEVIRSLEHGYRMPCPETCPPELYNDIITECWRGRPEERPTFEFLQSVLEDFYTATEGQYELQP

| Structure (SMILES) | Activity [1] | Activity [2] | Activity [3] | Activity [4] | Activity [5] | Activity [6] | Activity [7] | Activity [8] | Activity [9] | Activity (Homo sapiens) | inhibition [10] | Activity [11] | Activity [12] | Activity [13] | Activity [14] | Activity [15] | Activity [16] | Activity [17] | Activity [18] | Activity [19] | also measured |
| --- | --- | --- | --- | --- | --- | --- | --- | --- | --- | --- | --- | --- | --- | --- | --- | --- | --- | --- | --- | --- | --- |
| COc1ccccc1C1=C(c2cn(CCCNC(=O)OC(C)(C)C)c3ncccc23)C(=O)NC1=O | 63% | 3% | 24% | 3% | 86% | 100% | 92% | 89% | 101% | 95% | < 50% | 38% | 103% | 93% | 76% | 71% | 95% | 38% | 24% | 105% | Activity [20]: 100%; Activity [21]: 109%; Activity [22]: 95%; Activity [23]: 74%; Activity [24]: 81% |
| COCCCn1cc(C2=C(c3ccccc3O)C(=O)NC2=O)c2cccnc21 | 75% | 11% | 50% | 9% | 80% | 94% | 92% | 100% | 71% | 92% | < 50% | 46% | 93% | 96% | 59% | 46% | 78% | 48% | 33% | 98% | Activity [20]: 97%; Activity [21]: 84%; Activity [22]: 89%; Activity [23]: 99%; Activity [24]: 75% |
| O=C1NC(=O)C(c2cn(CCCO)c3ncccc23)=C1c1ncc(C(F)(F)F)cc1Cl | 67% | 30% | 59% | 34% | 78% | 74% | 91% | 93% | 68% | 87% | < 50% | 70% | 64% | 77% | 72% | 66% | 73% | 66% | 60% | 87% | Activity [20]: 86%; Activity [21]: 81%; Activity [22]: 74%; Activity [23]: 93%; Activity [24]: 80% |
